{"source": "patent US11541029B2", "about": "“High penetration compositions and their applications” (Techfields Pharma Co., Ltd., priority 2008, dated 2023)", "key": {"[1]": {"assay": "Amount of salicylic acid in rat cerebrospinal fluid (CSF), 0.3 mmol/kg", "type": "in vivo, rats", "experimental": "27 male rats were divided into 4 groups […]. […] Amounts of salicylic acid in rat CSF were determined."}, "[2]": {"assay": "Distribution in organs of rats killed with CO2 (absence of general circulation)", "settings": "5 hrs after 0.3 mmol/kg diethylaminoethyl acetylsalicylate HCl salt on back of killed rats", "experimental": "0.3 mmol/kg of diethylaminoethyl acetylsalicylate HCl salt (10% in pure water) was applied to the back of rats (10 cm^2) which were killed with CO2. The rats were shaken for 5 hrs, then the HPCs and parent drugs in organs of rats were determined."}, "[3]": {"tested_on": "autologous blood clots injected in femoral vein (pulmonary thrombus)", "assay": "Anti-thrombosis activity, autologous blood clots in rabbits", "type": "in vivo, Chinese White rabbits", "settings": "50 mg/kg topically to the back twice per day, 5 days", "experimental": "Eighteen Chinese White rabbits weighing between 3.0 and 3.5 kg (aged 6-7 months) were selected and divided into three groups (control, P-1 and […] groups, n=6). One hour before the experiment, thrombi were made by aspirating venous blood (1 ml) into a sterilized bottle to clot. To avoid fragmentation and slow lysis, the autologous blood clots were stabilized in temperature-controlled (70° C.) distilled water for 10 min. After anesthesia, the femoral veins were exposed and distally isolated, and autologous blood clots (0.05 g/kg) were injected through an indwelling catheter (20GA), which had been placed in the femoral vein isolated earlier. 50 mg/kg of diethylaminoethyl acetylsalicylate.HCl salt (P-1, 10% in 25% ethanol) and diethylaminoethyl acetylsalicylsalicylate.HCl salt (P-59, 10% in 25% ethanol) were topically applied to the back of the rabbits twice per day. After 5 days, rabbits were euthanized with an excessive intravenous injection of sodium amobarbital (60 mg/kg). The lungs and hearts were isolated to observe whether thrombi were present in the pulmonary arteries. The lungs were immersed in 10% formalin for 24 h. Consecutive transverse sections along the obstructed pulmonary arteries were paraffin-embedded and stained with hematoxylin-eosine. […]"}, "[4]": {"tested_on": "fungal diseases and insects of grape vine", "assay": "Antiviral, anti-fungus, anti-insect activity in red grape vine", "type": "in vivo", "from_the_text": "2 Acres of grape vine was divided into 4 groups (½ acre each). All field operations concerning land preparation and the uses of fertilizers were same for all groups. Group A was control group treated with no chemicals. Group B was normal fungicides and insecticides-treated group. Group C was N,N-diethylaminoethyl acetylsalicylate treated group. Group D was N,N-diethylaminoethyl acetylsalicylate and N,N-diethylaminoethyl jasmonate.citric acid treated group. In group A, black rot, downy mildew, powdery mildew, anthracnose, Phomopsis Blight, and other fungal diseases were found and Grape Berry Moth, Grape Root Borer, Rose Chafer, Japanese beetle, grape tomato gall, and other diseases and insects were found. Yield nothing of good (edible) grapes. In group B, 200 g of Ferbam 76% WP in 100 kg of water was applied to the group B grape vines in November 15; 160 g of sulfur 95% WP and 600 g of hydrated lime in 100 kg of water was applied to the group B grape vines in December 15; 200 g of Daconil 2787 in 100 kg of water was applied to the group B grape vines in March 10; 250 g of Captan 50% WP and 200 g of dimethomorph 50% WP in 100 kg of water was applied to the group B grape vines in March 20; 30 g of (4″R)-4″-deoxy-4″-(methylamino)avermectin B1 benzoate [proclaim ? (banleptm)] […]"}}, "data": [{"smiles": "CCN(CC)CCOC(=O)c1ccccc1OC(C)=O.Cl", "note": "[P-1, diethylaminoethyl acetylsalicylate.HCl salt]", "values": [{"measurement": "salicylic acid in CSF", "setting": "[1]; intramuscularly, 1 hour", "result": "36.4 ± 4.3", "unit": "nmol/g"}, {"measurement": "salicylic acid in CSF", "setting": "[1]; intramuscularly, 8 hours", "result": "28.2 ± 6.5", "unit": "nmol/g"}, {"measurement": "salicylic acid in CSF", "setting": "[1]; intramuscularly, 18 hours", "result": "15.1 ± 4.7", "unit": "nmol/g"}, {"measurement": "salicylic acid in CSF", "setting": "[1]; transdermally, 1 hour", "result": "38 ± 17", "unit": "nmol/g"}, {"measurement": "salicylic acid in CSF", "setting": "[1]; transdermally, 8 hours", "result": "28.4 ± 7.5", "unit": "nmol/g"}, {"measurement": "salicylic acid in CSF", "setting": "[1]; transdermally, 18 hours", "result": "22.3 ± 5.4", "unit": "nmol/g"}, {"measurement": "concentration in Leg muscle", "setting": "[2]", "result": "5.2 ± 3.2", "unit": "nmol/g"}, {"measurement": "concentration in kidney", "setting": "[2]", "result": "3.1 ± 1.4", "unit": "nmol/g"}, {"measurement": "concentration in liver", "setting": "[2]", "result": "1.2 ± 1.1", "unit": "nmol/g"}, {"measurement": "concentration in pancreas", "setting": "[2]", "result": "2.7 ± 1.3", "unit": "nmol/g"}, {"measurement": "concentration in stomach", "setting": "[2]", "result": "4.3 ± 1.1", "unit": "nmol/g"}, {"measurement": "lung tissue and vascular walls (histology)", "setting": "[3]", "result": "both lung tissue and vascular walls were normal"}, {"measurement": "Yield of good (edible) grapes", "setting": "[4]; 1/2 acre per group, Malathion co-applied in group C", "result": 6300, "unit": "kg"}, {"measurement": "harvest dates earlier", "setting": "[4]; groups C and D", "result": 10, "unit": "days"}]}]}
